Measurements taken from US9688710B2, “Inhibitors of sodium glucose cotransporter 1” (LEXICON PHARMACEUTICALS, INC., priority 2012, dated 2017).

Columns and labels:
[1] = molecular target: Human sodium/glucose co-transporter type 1 (SGLT1) (Homo sapiens (Human), UniProt P13866); assay: In vitro human SGLT1 inhibition assay (14C-AMG uptake); assay type: cell-based; set-up: key to SGLT1 (human SGLT1 IC50): ***: a value less than 0.01 μM; **: a value less than 0.1 μM; *: a value less than 1 μM; —: a value not measured or exceeding μM; settings: HEK293 cells expressing human HA-SGLT1, 14C-AMG uptake
In short: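 HEK293 cells stably expressing human HA-tagged SGLT1 (30,000/well, overnight) were washed into Na+-containing uptake buffer (140 mM NaCl, HEPES/Tris, 1 mg/mL BSA, pH 7.3). Cells then received compound plus 100 nCi 14C-AMG for 1–2 h at 37 °C; after washing, AMG uptake was quantified by scintillation counting.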

[2] = molecular target: Human sodium/glucose co-transporter type 2 (SGLT2) (Homo sapiens (Human), UniProt P31639); assay: In vitro human SGLT2 inhibition assay (14C-AMG uptake); assay type: cell-based; set-up: key to SGLT2 (human SGLT2 IC50): ***: a value less than 0.01 μM; **: a value less than 0.1 μM; *: a value less than 1 μM; —: a value not measured or exceeding μM; settings: HEK293 cells expressing human HA-SGLT2, 14C-AMG uptake
In short: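 HEK293 cells stably expressing HA-tagged human SGLT2, seeded overnight, washed into Na+-containing HEPES/Tris uptake buffer with 1 mg/mL BSA, pH 7.3. Compound added, then 14C-AMG (100 nCi); 1-2 h at 37 °C, 5% CO2. Washed cells counted by scintillation for 14C-AMG uptake.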

Sequence of Human sodium/glucose co-transporter type 2 (SGLT2) (P31639 whole entry): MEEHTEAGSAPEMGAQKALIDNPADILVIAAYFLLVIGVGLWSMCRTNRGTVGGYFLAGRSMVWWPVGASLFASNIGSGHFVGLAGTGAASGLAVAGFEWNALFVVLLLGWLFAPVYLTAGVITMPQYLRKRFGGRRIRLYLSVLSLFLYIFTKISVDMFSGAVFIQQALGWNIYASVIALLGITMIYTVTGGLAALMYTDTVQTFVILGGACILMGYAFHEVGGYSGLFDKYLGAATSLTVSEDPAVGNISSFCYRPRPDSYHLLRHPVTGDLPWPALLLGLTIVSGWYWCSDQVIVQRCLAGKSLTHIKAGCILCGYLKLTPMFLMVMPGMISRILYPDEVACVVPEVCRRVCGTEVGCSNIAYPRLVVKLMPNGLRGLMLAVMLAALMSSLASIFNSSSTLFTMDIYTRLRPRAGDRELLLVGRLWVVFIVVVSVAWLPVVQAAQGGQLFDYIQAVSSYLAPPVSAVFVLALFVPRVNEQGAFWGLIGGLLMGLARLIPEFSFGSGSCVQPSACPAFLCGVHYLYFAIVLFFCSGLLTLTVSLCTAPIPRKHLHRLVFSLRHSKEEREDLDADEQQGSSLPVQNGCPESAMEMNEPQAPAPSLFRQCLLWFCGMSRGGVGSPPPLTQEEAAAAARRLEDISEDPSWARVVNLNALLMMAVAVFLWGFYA
Sequence of Human sodium/glucose co-transporter type 1 (SGLT1) (P13866 whole entry): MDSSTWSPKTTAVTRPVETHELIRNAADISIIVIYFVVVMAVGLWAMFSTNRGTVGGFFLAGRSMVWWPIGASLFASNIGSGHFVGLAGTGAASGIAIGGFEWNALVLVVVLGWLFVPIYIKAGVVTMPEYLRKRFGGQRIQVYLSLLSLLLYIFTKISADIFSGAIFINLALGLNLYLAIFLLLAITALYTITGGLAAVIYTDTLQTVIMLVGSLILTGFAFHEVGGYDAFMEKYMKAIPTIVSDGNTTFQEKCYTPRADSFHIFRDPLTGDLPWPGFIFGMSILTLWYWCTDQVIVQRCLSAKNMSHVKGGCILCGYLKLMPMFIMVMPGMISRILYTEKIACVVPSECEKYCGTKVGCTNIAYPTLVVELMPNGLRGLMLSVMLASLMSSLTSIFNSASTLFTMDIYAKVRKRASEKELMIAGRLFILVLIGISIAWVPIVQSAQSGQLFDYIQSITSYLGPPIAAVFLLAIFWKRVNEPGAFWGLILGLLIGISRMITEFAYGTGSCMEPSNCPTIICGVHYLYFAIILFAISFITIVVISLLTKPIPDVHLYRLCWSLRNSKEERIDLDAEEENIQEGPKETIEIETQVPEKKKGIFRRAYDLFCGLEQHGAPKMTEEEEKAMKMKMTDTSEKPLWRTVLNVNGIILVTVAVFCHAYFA

Compound	IC50 [1] [nM]	IC50 [2] [nM]	SGLT1 (human SGLT1 IC50) [1]	SGLT2 (human SGLT2 IC50) [2]
CS[C@H]1O[C@@H](c2ccc(C)c(Cc3ccc(OCCCC(=O)NC4(C(N)=O)CCCC4)cc3)c2)[C@H](O)[C@@H](O)[C@@H]1O [1-(4-(4-(2-methyl-5-((2S,3R,4R,5S,6R)-3,4,5-trihydroxy-6-(methylthio)tetrahydro-2H-pyran-2-yl)benzyl)phenoxy)butanamido)cyclopentanecarboxamide]	< 10	< 10		
CS[C@H]1O[C@@H](c2ccc(C)c(Cc3ccc(CCCCCC(=O)NC(C)(C)C(N)=O)cc3)c2)[C@H](O)[C@@H](O)[C@@H]1O [N-(1-amino-2-methyl-1-oxopropan-2-yl)-6-(4-(2-methyl-5-((2S,3R,4R,5S,6R)-3,4,5-trihydroxy-6-(methylthio)tetrahydro-2H-pyran-2-yl)benzyl)phenyl)hexanamide]	< 100	< 10		
CCC(=O)NCCOc1ccc(Cc2cc([C@@H]3O[C@H](SC)[C@@H](O)[C@H](O)[C@H]3O)ccc2Cl)cc1 [N-(2-(4-(2-chloro-5-((2S,3R,4R,5S,6R)-3,4,5-trihydroxy-6-(methylthio)tetrahydro-2H-pyran-2-yl)benzyl)phenoxy)ethyl)propionamide]	< 10	< 10		
CS[C@H]1O[C@@H](c2ccc(C)c(Cc3ccc(OCCCC(=O)O)cc3)c2)[C@H](O)[C@@H](O)[C@@H]1O [4-(4-(2-methyl-5-((2S,3R,4R,5S,6R)-3,4,5-trihydroxy-6-(methylthio)tetrahydro-2H-pyran-2-yl)benzyl)phenoxy)butanoic acid]		< 100	—	
CS[C@H]1O[C@@H](c2ccc(C)c(Cc3ccc(OCCCC(=O)NCC(C)(C)C(N)=O)cc3)c2)[C@H](O)[C@@H](O)[C@@H]1O [N-(3-amino-2,2-dimethyl-3-oxopropyl)-4-(4-(2-methyl-5-((2S,3R,4R,5S,6R)-3,4,5-trihydroxy-6-(methylthio)tetrahydro-2H-pyran-2-yl)benzyl)phenoxy)butanamide]	< 100	< 10		
CS[C@H]1O[C@@H](c2ccc(Cl)c(Cc3ccc(OCCCC(=O)NC4CCCCC4N4CCOCC4)cc3)c2)[C@H](O)[C@@H](O)[C@@H]1O (stereo partly drawn) [4-(4-(2-chloro-5-((2S,3R,4R,5S,6R)-3,4,5-trihydroxy-6-(methylthio)tetrahydro-2H-pyran-2-yl)benzyl)phenoxy)-N-(2-morpholinocyclohexyl)butanamide]	< 100	< 10		
CSC1OC(c2ccc(C)c(Cc3ccc(CCCC(=O)N4CCN(CCCN5CCN(C(=O)CCCc6ccc(Cc7cc(C8OC(SC)C(O)C(O)C8O)ccc7C)cc6)CC5)CC4)cc3)c2)C(O)C(O)C1O [(S,R,S,R,R)-1,1′-(4,4′-(propane-1,3-diyl)bis(piperazine-4,1-diyl))bis(4-(4-(2-methyl-5-((2S,3R,4R,5S,6R)-3,4,5-trihydroxy-6-(methylthio)tetrahydro-2H-pyran-2-yl)benzyl)phenyl)butan-1-one)]	< 10	< 10		
CS[C@H]1O[C@@H](c2ccc(C)c(Cc3ccc(CCC[C@H](N)C(=O)O)cc3)c2)[C@H](O)[C@@H](O)[C@@H]1O [(S)-2-amino-5-(4-(2-methyl-5-((2S,3R,4R,5S,6R)-3,4,5-trihydroxy-6-(methylthio)tetrahydro-2H-pyran-2-yl)benzyl)phenyl)pentanoic acid]		< 100	—	
CS[C@H]1O[C@@H](c2ccc(C)c(Cc3ccc(CCCCNC(=O)NC(C)(C)CO)cc3)c2)[C@H](O)[C@@H](O)[C@@H]1O [1-(1-hydroxy-2-methylpropan-2-yl)-3-(4-(4-(2-methyl-5-((2S,3R,4R,5S,6R)-3,4,5-trihydroxy-6-(methylthio)tetrahydro-2H-pyran-2-yl)benzyl)phenyl)butyl)urea]	< 100	< 10		
CS[C@H]1O[C@@H](c2ccc(C)c(Cc3ccc(OCC(=O)NC(C)(C)C(N)=O)cc3)c2)[C@H](O)[C@@H](O)[C@@H]1O [2-methyl-2-(2-(4-(2-methyl-5-((2S,3R,4R,5S,6R)-3,4,5-trihydroxy-6-(methylthio)tetrahydro-2H-pyran-2-yl)benzyl)phenoxy)acetamido)propanamide]	< 100	< 10		
CS[C@H]1O[C@@H](c2ccc(Cl)c(Cc3ccc(OCCCC(=O)N(CCO)CCO)cc3)c2)[C@H](O)[C@@H](O)[C@@H]1O [4-(4-(2-chloro-5-((2S,3R,4R,5S,6R)-3,4,5-trihydroxy-6-(methylthio)tetrahydro-2H-pyran-2-yl)benzyl)phenoxy)-N,N-bis(2-hydroxyethyl)butanamide]	< 100	< 10		
COC(=O)CCCOc1ccc(Cc2cc([C@@H]3O[C@H](SC)[C@@H](O)[C@H](O)[C@H]3O)ccc2Cl)cc1 [methyl 4-(4-(2-chloro-5-((2S,3R,4R,5S,6R)-3,4,5-trihydroxy-6-(methylthio)tetrahydro-2H-pyran-2-yl)benzyl)phenoxy)butanoate]			—	—
CS[C@H]1O[C@@H](c2ccc(Cl)c(Cc3ccc(OCCCC(=O)NCC(C)(C)C(N)=O)cc3)c2)[C@H](O)[C@@H](O)[C@@H]1O [N-(3-amino-2,2-dimethyl-3-oxopropyl)-4-(4-(2-chloro-5-((2S,3R,4R,5S,6R)-3,4,5-trihydroxy-6-(methylthio)tetrahydro-2H-pyran-2-yl)benzyl)phenoxy)butanamide]	< 100	< 10		
CCNC(=O)CCCOc1ccc(Cc2cc([C@@H]3O[C@H](SC)[C@@H](O)[C@H](O)[C@H]3O)ccc2C)cc1 [N-ethyl-4-(4-(2-methyl-5-((2S,3R,4R,5S,6R)-3,4,5-trihydroxy-6-(methylthio)tetrahydro-2H-pyran-2-yl)benzyl)phenoxy)butanamide]	< 10	< 10		
CS[C@H]1O[C@@H](c2ccc(C)c(Cc3ccc(OCCCC(=O)N[C@@H](C)C(N)=O)cc3)c2)[C@H](O)[C@@H](O)[C@@H]1O [N-((S)-1-amino-1-oxopropan-2-yl)-4-(4-(2-methyl-5-((2S,3R,4R,5S,6R)-3,4,5-trihydroxy-6-(methylthio)tetrahydro-2H-pyran-2-yl)benzyl)phenoxy)butanamide]	< 100	< 10		
CS[C@H]1O[C@@H](c2ccc(C)c(Cc3ccc(CCCC(=O)NC(C)(C)C(=O)NC4CCN(C(=O)OC(C)(C)C)CC4)cc3)c2)[C@H](O)[C@@H](O)[C@@H]1O [tert-butyl 4-(2-methyl-2-(4-(4-(2-methyl-5-((2S,3R,4R,5S,6R)-3,4,5-trihydroxy-6-(methylthio)tetrahydro-2H-pyran-2-yl)benzyl)phenyl)butanamido)propanamido)piperidine-1-carboxylate]	< 10	< 10		
CS[C@H]1O[C@@H](c2ccc(C)c(Cc3ccc(CCCCNC4(C(N)=O)CCCC4)cc3)c2)[C@H](O)[C@@H](O)[C@@H]1O [1-((4-(4-(2-methyl-5-((2S,3R,4R,5S,6R)-3,4,5-trihydroxy-6-(methylthio)tetrahydro-2H-pyran-2-yl)benzyl)phenyl)butyl)amino)cyclopentanecarboxamide]	< 100	< 10		
CS[C@H]1O[C@@H](c2ccc(C)c(Cc3ccc(OCCCC(=O)NC(C)(C)C(=O)NCCN(C)C)cc3)c2)[C@H](O)[C@@H](O)[C@@H]1O [N-(1-((2-(dimethylamino)ethyl)amino)-2-methyl-1-oxopropan-2-yl)-4-(4-(2-methyl-5-((2S,3R,4R,5S,6R)-3,4,5-trihydroxy-6-(methylthio)tetrahydro-2H-pyran-2-yl)benzyl)phenoxy)butanamide]	< 10	< 10		
